# Data as given in ChEMBL document CHEMBL5055639, “ω-Functionalized Lipid Prodrugs of HIV NtRTI Tenofovir with Enhanced Pharmacokinetic Properties” (J Med Chem, 2021).
# How the values were obtained:
# [1] = Therapeutic index, ratio of CC50 for cytotoxicity against HEK293T cells to IC50 for antiviral activity against human immunodeficiency virus expressed in HEK293T cells; type: toxicity, cell-based; conditions: read-out: Ratio CC50/IC50
# HEK-293T = test: Cytotoxicity against HEK293T cells assessed as reduction in cell viability measured after 48 hrs by CellTiter 96 Aqueous One Solution reagent based cell proliferation assay; conditions: human
# Cytochrome P450 2D6 = Cytochrome P450 2D6 (Homo sapiens, UniProt P10635); test: Inhibition of human recombinant CYP2D6 expressed in insect microsome using (3-[2-([…]-N-methylammonium)-ethyl]-7-methoxy-4-methylcoumarin iodide as a substrate incubated for 30 mins followed by addition of NADPH regenerating system measured immediately by fluorescence based analysis; type: ADME, microsomes
# Cytochrome P450 3A4 = Cytochrome P450 3A4 (Homo sapiens, UniProt P08684); test: Inhibition of human recombinant CYP3A4 expressed in insect microsome using 7-benzyloxy-4-trifluoromethylcoumarin as a substrate incubated for 30 mins followed by addition of NADPH regenerating system measured immediately by fluorescence based analysis; type: ADME, microsomes
# [2] = Metabolic stability in human liver microsomes assessed as half life at 3 uM measured up to 30 min in presence of NADPH by LC-MS/MS analysis; type: ADME, Microsome; conditions: 0.5 h
# [3] = Tmax in C57BL/6 mouse liver at 10 mg/kg, po measured up to 24 hrs by LC-MS/MS analysis; type: ADME, organism-based
# [4] = Prodrug conversion in C57BL/6 mouse plasma assessed as AUC(0 to 24 hrs) of TFV metabolite at 10 mg/kg, po measured up to 24 hrs by LC-MS/MS analysis; type: ADME, organism-based; parameters: time < 24 hrs, dose 10 mg/kg, route po; conditions: in vivo
# [5] = Prodrug conversion in C57BL/6 mouse plasma assessed as Cmax of TFV metabolite at 10 mg/kg, po measured up to 24 hrs by LC-MS/MS analysis; type: ADME, organism-based; parameters: time < 24 hrs, dose 10 mg/kg, route po; conditions: in vivo
# [6] = Prodrug conversion in C57BL/6 mouse plasma assessed as Tmax of TFV metabolite at 10 mg/kg, po measured up to 24 hrs by LC-MS/MS analysis; type: ADME, organism-based; conditions: in vivo
# [7] = Half life in C57BL/6 mouse plasma at 10 mg/kg, po measured up to 24 hrs by LC-MS/MS analysis; type: ADME, organism-based; conditions: in vivo
# [8] = Tmax in C57BL/6 mouse plasma at 10 mg/kg, po measured up to 24 hrs by LC-MS/MS analysis; type: ADME, organism-based; conditions: in vivo
# [9] = Ratio of prodrug AUC(0 to 24 hrs) to TFV AUC(0 to 24 hrs) in C57BL/6 mouse plasma at 10 mg/kg, po measured up to 24 hrs by LC-MS/MS analysis; type: ADME, organism-based; conditions: in vivo
# [10] = AUC(0 to 24 hrs) in C57BL/6 mouse liver at 10 mg/kg, po measured up to 24 hrs by LC-MS/MS analysis; type: ADME, organism-based; parameters: time < 24 hrs, dose 10 mg/kg, route po; conditions: in vivo
# [11] = Ratio of prodrug AUC(0 to 24 hrs) to TFV AUC(0 to 24 hrs) in C57BL/6 mouse liver at 10 mg/kg, po measured up to 24 hrs by LC-MS/MS analysis; type: ADME, organism-based; conditions: in vivo
# [12] = Prodrug conversion in C57BL/6 mouse liver assessed as Tmax of TFV metabolite at 10 mg/kg, po measured up to 24 hrs by LC-MS/MS analysis; type: ADME, organism-based; conditions: in vivo
# [13] = Cmax in C57BL/6 mouse liver at 10 mg/kg, po measured up to 24 hrs by LC-MS/MS analysis; type: ADME, organism-based; parameters: time < 24 hrs, dose 10 mg/kg, route po; conditions: in vivo
# [14] = Prodrug conversion in C57BL/6 mouse liver assessed as Cmax of TFV metabolite at 10 mg/kg, po measured up to 24 hrs by LC-MS/MS analysis; type: ADME, organism-based; parameters: dose 10 mg/kg, time < 24 hrs, route po; conditions: in vivo
# [15] = test system: Human immunodeficiency virus; test: Antiviral activity against human immunodeficiency virus expressed in HEK293T cells coexpressing firefly luciferase gene incubated for 48 hrs by Bright-Glo luciferase assay; type: functional, organism-based; conditions: Human immunodeficiency virus 1, HEK-293T
# [16] = Prodrug conversion in C57BL/6 mouse liver assessed as AUC(0 to 24 hrs) of TFV metabolite at 10 mg/kg, po measured up to 24 hrs by LC-MS/MS analysis; type: ADME, organism-based; parameters: time < 24 hrs, dose 10 mg/kg, route po; conditions: in vivo
# [17] = AUC(0 to 24 hrs) in C57BL/6 mouse plasma at 10 mg/kg, po measured up to 24 hrs by LC-MS/MS analysis; type: ADME, organism-based; parameters: time < 24 hrs, dose 10 mg/kg, route po; conditions: in vivo
# [18] = Plasma protein binding in C57BL/6 mouse at 10 mg/kg, po measured up to 24 hrs by LC-MS/MS; type: ADME, organism-based; conditions: read-out: PPB
# [19] = Cmax in C57BL/6 mouse plasma at 10 mg/kg, po measured up to 24 hrs by LC-MS/MS analysis; type: ADME, organism-based; parameters: dose 10 mg/kg, time < 24 hrs, route po; conditions: in vivo
# [20] = test system: Human immunodeficiency virus; test: Potency index, ratio of TFV IC50 to TXL IC50 for antiviral activity against human immunodeficiency virus expressed in HEK293T cells coexpressing firefly luciferase gene incubated for 48 hrs by Bright-Glo luciferase assay; type: functional
# [21] = Half life in HBV patients at 50 mg, po qa administered for 28 days; type: ADME, organism-based; conditions: human, in vivo, time 28 day
# [22] = Prodrug conversion in […] patients assessed as AUC(0 to 24 hrs) of TFV metabolite at 50 mg, po qa administered for 28 days; type: ADME, organism-based; parameters: time 28 day, dose 50 mg, route po; conditions: human, in vivo, 672 h
# [23] = AUC(0 to 24 hrs) in HBV patients at 50 mg, po qa administered for 28 days; type: ADME, organism-based; parameters: time 28 day, dose 50 mg, route po; conditions: human, in vivo
# [24] = Cmax in HBV patients at 50 mg, po qa administered for 28 days; type: ADME, organism-based; parameters: dose 50 mg, time 28 day, route po; conditions: human, in vivo
# [25] = Tmax in HBV patients at 50 mg, po qa administered for 28 days; type: ADME, organism-based; conditions: human, in vivo, time 28 day
# [26] = Prodrug conversion in […] patients assessed as Cmax of TFV metabolite at 50 mg, po qa administered for 28 days; type: ADME, organism-based; parameters: time 28 day, dose 50 mg, route po; conditions: human, in vivo, 672 h
# [27] = C57BL/6, mouse, liver, read-out: Tmax
# Chain of Cytochrome P450 2D6 (P10635 whole entry): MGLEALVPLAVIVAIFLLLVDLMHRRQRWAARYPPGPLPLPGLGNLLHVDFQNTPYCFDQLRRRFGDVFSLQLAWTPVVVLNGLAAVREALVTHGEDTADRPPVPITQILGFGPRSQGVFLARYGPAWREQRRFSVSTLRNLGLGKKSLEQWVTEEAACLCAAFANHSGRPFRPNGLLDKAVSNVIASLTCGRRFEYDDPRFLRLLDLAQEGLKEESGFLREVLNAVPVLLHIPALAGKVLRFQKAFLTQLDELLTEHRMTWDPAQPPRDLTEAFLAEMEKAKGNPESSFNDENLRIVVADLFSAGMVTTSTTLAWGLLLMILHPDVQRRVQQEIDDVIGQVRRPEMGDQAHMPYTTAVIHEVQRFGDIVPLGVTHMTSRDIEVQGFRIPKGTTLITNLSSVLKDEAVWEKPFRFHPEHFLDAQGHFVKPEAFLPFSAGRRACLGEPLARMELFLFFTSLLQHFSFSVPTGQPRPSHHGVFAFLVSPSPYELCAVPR
# Chain of Cytochrome P450 3A4 (P08684 whole entry): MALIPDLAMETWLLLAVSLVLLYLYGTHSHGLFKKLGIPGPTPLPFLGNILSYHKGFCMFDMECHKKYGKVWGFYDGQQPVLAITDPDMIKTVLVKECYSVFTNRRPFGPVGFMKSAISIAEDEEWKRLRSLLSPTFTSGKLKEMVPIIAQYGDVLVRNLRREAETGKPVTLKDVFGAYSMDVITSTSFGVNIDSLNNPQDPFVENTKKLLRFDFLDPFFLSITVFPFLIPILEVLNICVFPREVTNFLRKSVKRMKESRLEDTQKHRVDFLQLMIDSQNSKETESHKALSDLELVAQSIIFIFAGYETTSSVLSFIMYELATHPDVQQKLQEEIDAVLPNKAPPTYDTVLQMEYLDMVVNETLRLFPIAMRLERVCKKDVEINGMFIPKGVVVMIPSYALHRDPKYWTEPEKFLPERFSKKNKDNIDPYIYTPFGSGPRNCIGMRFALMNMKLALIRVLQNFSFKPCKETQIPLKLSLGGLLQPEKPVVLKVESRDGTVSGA
SMILES,selectivity ratio [1],CC50 (HEK-293T) [µM],IC50 (Cytochrome P450 2D6) [µM],IC50 (Cytochrome P450 3A4) [µM],t1/2 [2] [h],AUC [4] [ng·h/mL],Cmax [5] [ng/mL],Tmax [6] [h],t1/2 [7] [h],Tmax [8] [h],AUC [10] [ng·h/mL],Tmax [12] [h],Cmax [13] [ng/mL],Cmax [14] [ng/mL],IC50 [15] [µM],AUC [16] [ng·h/mL],AUC [17] [ng·h/mL],fraction unbound at 24 h [18],Cmax [19] [ng/mL],other results
C[C@H](Cn1cnc2c(N)ncnc21)OCP(=O)(O)OCCCCCCCCCCCCCCCCCC#CC(F)(F)F.N,423,78.7,> 20,> 20,> 2,,,,,,,,,,,,,,,
C[C@H](Cn1cnc2c(N)ncnc21)OCP(=O)(O)OCCCOCCCCCCCCCCCCCC#CC(F)(F)F.N,> 4350,> 100,> 20,,> 2,425,42.8,1,2.69,2,1310,4,558,1380,0.023,21900,643,< 0.001,153,"Tmax [3, 27]: 1 h; Ratio AUC [9]: 1.51; Ratio AUC [11]: 0.06"
C[C@H](Cn1cnc2c(N)ncnc21)OCP(=O)(O)OCCCCCCCCCCCCCCCCC#C[Si](C)(C)C.N,792,68.1,,,> 2,,,,,,,,,,0.086,,,,,
C#CCCCCCCCCCCCCCCOCCCOP(=O)(O)CO[C@H](C)Cn1cnc2c(N)ncnc21.N,> 758,> 100,> 20,> 20,> 2,,,,,,,,,,0.132,,,,,
CCCCCCCCCCCCCCCCSCCCOP(=O)(O)CO[C@H](C)Cn1cnc2c(N)ncnc21.N,4980,49.8,,,0.7,,,,,,,,,,0.01,,,,,
C#CCCCCCCCCCCCCCCCCCCOP(=O)(O)CO[C@H](C)Cn1cnc2c(N)ncnc21.N,84,99.5,,> 50,> 2,,,,,,,,,,1.18,,,,,
C[C@H](Cn1cnc2c(N)ncnc21)OCP(=O)(O)OCCCOCCCCCCCCCCCCC#C[Si](C)(C)C.N,,,21.7,> 20,> 2,142,14.1,12,2.49,2,101000,4,8130,671,0.069,11200,550,< 0.001,120,"Tmax [3, 27]: 4 h"
CCCCCCCCCCCCCCCCOCCCOP(=O)(O)CO[C@H](C)Cn1cnc2c(N)ncnc21.N,5420,97.6,,,0.7,132,19.6,2,2.92,1,4970,17.3,2730,1460,,26100,301,< 0.001,125,"Tmax ([3]; mouse, in vivo, po, 10 mg/kg, 24 h): 1 h; Ratio AUC [9]: 2.29; Ratio IC50 [20]: 89; half-life [21]: 1.5 h; AUC [22]: 136 ng·h/mL; AUC at 672 h [23]: 110 ng·h/mL; Ratio AUC [11]: 0.19; Cmax [24]: 51 ng/mL; Tmax [25]: 1.5 h; Cmax [26]: 8.5 ng/mL"
